In patent publication US5942494A, “Stimulation of gene expression and synthesis of heat shock protein 72/73 (HSP 70)” (The Trustees of Columbia University in the City of New York, priority 1996, dated 1999):
Square brackets hold non-standard residues; d marks the D form. Peptide text beside a SMILES is read from it. Nle = CCCC[C@H](N)C(=O)O

Test system: HSF1
Assay: EGS cross-linking and Western blot of HSF1 oligomeric forms in HepG2 cells
Assay type: cell-based, human
Conditions: ALLN 40 μg/ml, 2 hours at 37° C., EGS cross-linking
Method: FIGS. 6A-6B: ALLN affects the trimerization of HSF. HepG2 cells were treated with serum-free MEM containing 1.5% BSA for 2 hours at 37° C. without any additions (lane1), at 37 ° C. but containing 40μg/ml of ALLN in the medium (lane2), at 37° C. in a medium containing both ALLN and 50 μg/ml of cycloheximide (lane3) , at 42° C. alone (lane4), or at 42° C. plus cycloheximide in the medium (lane5). Cell lysates were prepared as described under Experimental Details. The lysates were either directly run on the SDS-PAGE (A) to show the steady-state protein levels of HSF1 or subjected to cross-linking with ethylene glycol bis sucrinimidylsuccinate (EGS) before running the gel (B) to show the oligomeric forms of HSF1. The proteins were then transfered to a nitrocellulose membrane and immunoblotted with anti-human HSF1 antibody. Arrows on the right side indicates the monomeric, dimeric or trimeric forms of HSF1, respectively. This experiment was repeated three times with identical results.
For measurement of the steady-state HSF1 protein levels, whole cell extracts were prepared by lysing the cells directly with 2×SDS-sample buffer (Maniatis, et al., 1982). For chemical cross-linking experiments, whole-cell extracts were prepared as described (Mosser, et al., 1988). Briefly, the cold PBS-washed cell pellets were quickly and repeatedly frozen in liquid nitrogen. […]

`CCCC[C@@H](C=O)NC(=O)[C@H](CC(C)C)NC(=O)[C@H](CC(C)C)NC(C)=O` [ALLN, N-acetyl-leucyl-leucyl-norleucinal] (Ac-Leu-Leu-[Nle]-aldehyde) was tested. Which “Oligomeric form of HSF1 (270-kDa cross-linked product)” value did it give?
The value was “trimer”.
